# System: Acinetobacter baumannii isolates
# Experiment: Antimicrobial susceptibility test, disc diffusion method (CLSI M100-S24)
# Assay type: cell-based
# Parameters: key to Inhibition zone: “NZ” indicated that no zone of inhibition was observed
# Settings: for Inhibition zone: disc diffusion; for susceptibility category: ATM disc
# Experimental: A total of 33 non-duplicate, non-consecutive clinical isolates of Multi-Drug Resistant (MDR) Acinetobacter baumannii were collected from burn wards (“AB1-AB33”). Acinetobacter baumannii ATCC BAA 747 and Pseudomonas aeruginosa ATCC 27853 were used as control strains. The isolates were stored at −80° C. in trypticase soy broth containing 20% glycerol.
# Antimicrobial susceptibility tests of the collection of isolates were conducted using the disc diffusion method. The experiment was performed according to the recommendations and guidelines of Clinical Laboratory Standard Institutes (CLSI M100-S24; 2014). Clinical and Laboratory Standards Institute (CLSI), “Performance standards for antimicrobial susceptibility testing; twenty-fourth informational supplement,” Document M100-S24, Clinical and Laboratory Standards Institute (CLSI), Wayne, Pa., USA, 2014.
# A panel of commercial antibiotic discs (Amoxicillin (AMX), Amoxicillin/clavulanic acid (AMX/CLA), Piperacillin (PIP), Piperacillin/Tazobactam (PIP/TAZ), Ceftazidime (CAZ), Cefotaxime (CTX), Cefepime (FEP), Cefoxitin (FOX), Aztreonam (ATM), Imipenem (IP), Gentamicin (GEN), Amikacin (AK), Neomycin (NEO), Levofloxacin (LEV), Chloramphenicol (CHL), Tetracycline (TET), sulfamethoxazole/trimethoprim (SUL/TRI) was used for susceptibility testing. All commercial antibiotic discs were purchased from BBL (Becton Dickinson, USA).
# Forty grams of Mueller-Hinton Agar (MHA) were suspended in 1 Liter distilled water and then boiled to dissolve the powder completely. The medium was sterilized by autoclaving at 121° C. for 15 min. After autoclaving, the medium was cooled to 45° C. and 25 mL of molten agar media was poured into sterile Petri dishes (90 mm diameter) to give a depth of about 4 mm. The surface of the agar was dried to remove excess moisture before use. The plates were stored at 4-8° C. in sealed plastic bags if not used immediately.
# The inoculum suspension was prepared by selecting three to five morphologically similar colonies from overnight growth (16-24 h of incubation) on blood agar medium. […] The suspension density was measured using a UV spectrophotometer calibrated with a 0.5 McFarland standard. The density of the suspension was adjusted to McFarland 0.5 by addition of saline or more microorganisms. The adjusted inoculum suspension was used within 60 min of preparation.
# A sterile cotton swab was dipped into the bacterial suspension and the excess fluid was removed by turning the swab against the inside wall of the tube to avoid over-inoculation of plates. The inoculum was spread evenly over the entire surface of the agar plate by swabbing in three directions.
# The predetermined panel of antimicrobial disks was applied firmly on the inoculated Mueller-Hinton agar surface within 15 min of inoculation of the plates by a disc dispenser device. A maximum of six disks were accommodated on a 90-mm circular plate.
# Within 15 min of application of antimicrobial disks, the plates were inverted and incubated aerobically at 35-37° C. for 18-20 h.
# After incubation, inhibition zones were measured at the point where no obvious growth is detected by the unaided eye when the plate is held about 30 cm from the eye. Inhibition zone diameters were measured to the nearest millimeter with a ruler. The plates were read from the back of the plate with reflected light against a dark background. Zone diameters were interpreted and categorized as susceptible “S”, intermediate “I”, or resistant “R” according to the CLSI clinical breakpoint tables (see Table 1 and Table 2).
compound,measurement,setting,value
"CC(C)(O/N=C(\C(=O)N[C@@H]1C(=O)N2C(C(=O)[O-])=C(C[n+]3ccccc3)CS[C@H]12)c1csc(N)n1)C(=O)O [CAZ, Ceftazidime]",Inhibition zone,isolate AB1,20 mm
same,Inhibition zone,isolate AB2,17 mm
same,Inhibition zone,isolate AB3,26 mm
same,Inhibition zone,isolate AB4,21 mm
same,Inhibition zone,isolate AB5,9 mm
same,Inhibition zone,isolate AB6,28 mm
same,Inhibition zone,isolate AB7,NZ
same,Inhibition zone,isolate AB8,NZ
same,Inhibition zone,isolate AB9,21 mm
same,Inhibition zone,isolate AB10,NZ
same,Inhibition zone,isolate AB11,NZ
same,Inhibition zone,isolate AB12,NZ
same,Inhibition zone,isolate AB13,NZ
same,Inhibition zone,isolate AB14,NZ
same,Inhibition zone,isolate AB15,NZ
same,Inhibition zone,isolate AB16,32 mm
same,Inhibition zone,isolate AB17,12 mm
same,Inhibition zone,isolate AB18,NZ
same,Inhibition zone,isolate AB19,NZ
same,Inhibition zone,isolate AB20,NZ
same,Inhibition zone,isolate AB21,NZ
same,Inhibition zone,isolate AB22,NZ
same,Inhibition zone,isolate AB23,NZ
same,Inhibition zone,isolate AB24,NZ
same,Inhibition zone,isolate AB25,17 mm
same,Inhibition zone,isolate AB26,15 mm
same,Inhibition zone,isolate AB27,8 mm
same,Inhibition zone,isolate AB28,8 mm
same,Inhibition zone,isolate AB29,NZ
same,Inhibition zone,isolate AB30,NZ
same,Inhibition zone,isolate AB31,8 mm
same,Inhibition zone,isolate AB32,8 mm
same,Inhibition zone,isolate AB33,22 mm
"CO/N=C(\C(=O)N[C@@H]1C(=O)N2C(C(=O)[O-])=C(C[N+]3(C)CCCC3)CS[C@H]12)c1csc(N)n1 [FEP, Cefepime]",Inhibition zone,isolate AB1,20 mm
same,Inhibition zone,isolate AB2,16 mm
same,Inhibition zone,isolate AB3,18 mm
same,Inhibition zone,isolate AB4,14 mm
same,Inhibition zone,isolate AB5,7 mm
same,Inhibition zone,isolate AB6,21 mm
same,Inhibition zone,isolate AB7,NZ
same,Inhibition zone,isolate AB8,NZ
same,Inhibition zone,isolate AB9,22 mm
same,Inhibition zone,isolate AB10,7 mm
same,Inhibition zone,isolate AB11,NZ
same,Inhibition zone,isolate AB12,NZ
same,Inhibition zone,isolate AB13,NZ
same,Inhibition zone,isolate AB14,NZ
same,Inhibition zone,isolate AB15,8 mm
same,Inhibition zone,isolate AB16,35 mm
same,Inhibition zone,isolate AB17,11 mm
same,Inhibition zone,isolate AB18,NZ
same,Inhibition zone,isolate AB19,NZ
same,Inhibition zone,isolate AB20,NZ
same,Inhibition zone,isolate AB21,NZ
same,Inhibition zone,isolate AB22,NZ
same,Inhibition zone,isolate AB23,NZ
same,Inhibition zone,isolate AB24,7 mm
same,Inhibition zone,isolate AB25,10 mm
same,Inhibition zone,isolate AB26,14 mm
same,Inhibition zone,isolate AB27,8 mm
same,Inhibition zone,isolate AB28,NZ
same,Inhibition zone,isolate AB29,NZ
same,Inhibition zone,isolate AB30,NZ
same,Inhibition zone,isolate AB31,NZ
same,Inhibition zone,isolate AB32,NZ
same,Inhibition zone,isolate AB33,18 mm
Gentamicin,Inhibition zone,isolate AB1,24 mm
same,Inhibition zone,isolate AB2,20 mm
same,Inhibition zone,isolate AB3,24 mm
same,Inhibition zone,isolate AB4,22 mm
same,Inhibition zone,isolate AB5,15 mm
same,Inhibition zone,isolate AB6,26 mm
same,Inhibition zone,isolate AB7,NZ
same,Inhibition zone,isolate AB8,NZ
same,Inhibition zone,isolate AB9,21 mm
same,Inhibition zone,isolate AB10,NZ
same,Inhibition zone,isolate AB11,NZ
same,Inhibition zone,isolate AB12,12 mm
same,Inhibition zone,isolate AB13,NZ
same,Inhibition zone,isolate AB14,NZ
same,Inhibition zone,isolate AB15,20 mm
same,Inhibition zone,isolate AB16,18 mm
same,Inhibition zone,isolate AB17,24 mm
same,Inhibition zone,isolate AB18,17 mm
same,Inhibition zone,isolate AB19,20 mm
same,Inhibition zone,isolate AB20,NZ
same,Inhibition zone,isolate AB21,17 mm
same,Inhibition zone,isolate AB22,NZ
same,Inhibition zone,isolate AB23,NZ
same,Inhibition zone,isolate AB24,19 mm
same,Inhibition zone,isolate AB25,19 mm
same,Inhibition zone,isolate AB26,NZ
same,Inhibition zone,isolate AB27,8 mm
same,Inhibition zone,isolate AB28,20 mm
same,Inhibition zone,isolate AB29,20 mm
same,Inhibition zone,isolate AB30,20 mm
same,Inhibition zone,isolate AB31,8 mm
same,Inhibition zone,isolate AB32,NZ
same,Inhibition zone,isolate AB33,20 mm
"C[C@H]1[C@H](NC(=O)/C(=N\OC(C)(C)C(=O)O)c2csc(N)n2)C(=O)N1S(=O)(=O)O [ATM, Aztreonam]",susceptibility category,isolate AB1,R (Resistant ≤15)
same,Inhibition zone,isolate AB1,NZ
same,susceptibility category,isolate AB2,R (Resistant ≤15)
same,Inhibition zone,isolate AB2,NZ
same,susceptibility category,isolate AB3,R (Resistant ≤15)
same,Inhibition zone,isolate AB3,NZ
same,susceptibility category,isolate AB4,R (Resistant ≤15)
same,Inhibition zone,isolate AB4,NZ
same,susceptibility category,isolate AB5,R (Resistant ≤15)
same,Inhibition zone,isolate AB5,NZ
same,susceptibility category,isolate AB6,S (Sensitive ≥22)
same,Inhibition zone,isolate AB6,20 mm
same,susceptibility category,isolate AB7,R (Resistant ≤15)
same,Inhibition zone,isolate AB7,NZ
same,susceptibility category,isolate AB8,R (Resistant ≤15)
same,Inhibition zone,isolate AB8,NZ
same,susceptibility category,isolate AB9,R (Resistant ≤15)
same,Inhibition zone,isolate AB9,NZ
same,susceptibility category,isolate AB10,R (Resistant ≤15)
same,Inhibition zone,isolate AB10,13 mm
same,susceptibility category,isolate AB11,R (Resistant ≤15)
same,Inhibition zone,isolate AB11,NZ
same,susceptibility category,isolate AB12,R (Resistant ≤15)
same,Inhibition zone,isolate AB12,NZ
same,susceptibility category,isolate AB13,R (Resistant ≤15)
same,Inhibition zone,isolate AB13,NZ
same,susceptibility category,isolate AB14,R (Resistant ≤15)
same,Inhibition zone,isolate AB14,NZ
same,susceptibility category,isolate AB15,R (Resistant ≤15)
same,Inhibition zone,isolate AB15,11 mm
same,susceptibility category,isolate AB16,S (Sensitive ≥22)
same,Inhibition zone,isolate AB16,33 mm
same,susceptibility category,isolate AB17,R (Resistant ≤15)
same,Inhibition zone,isolate AB17,15 mm
same,susceptibility category,isolate AB18,R (Resistant ≤15)
same,Inhibition zone,isolate AB18,10 mm
same,susceptibility category,isolate AB19,R (Resistant ≤15)
same,Inhibition zone,isolate AB19,8 mm
same,susceptibility category,isolate AB20,R (Resistant ≤15)
same,Inhibition zone,isolate AB20,NZ
same,susceptibility category,isolate AB21,R (Resistant ≤15)
same,Inhibition zone,isolate AB21,7 mm
same,susceptibility category,isolate AB22,R (Resistant ≤15)
same,Inhibition zone,isolate AB22,NZ
same,susceptibility category,isolate AB23,R (Resistant ≤15)
same,Inhibition zone,isolate AB23,NZ
same,susceptibility category,isolate AB24,R (Resistant ≤15)
same,Inhibition zone,isolate AB24,NZ
same,susceptibility category,isolate AB25,R (Resistant ≤15)
same,Inhibition zone,isolate AB25,13 mm
same,susceptibility category,isolate AB26,R (Resistant ≤15)
same,Inhibition zone,isolate AB26,12 mm
same,susceptibility category,isolate AB27,R (Resistant ≤15)
same,Inhibition zone,isolate AB27,NZ
same,susceptibility category,isolate AB28,R (Resistant ≤15)
same,Inhibition zone,isolate AB28,NZ
same,susceptibility category,isolate AB29,R (Resistant ≤15)
same,Inhibition zone,isolate AB29,NZ
same,susceptibility category,isolate AB30,R (Resistant ≤15)
same,Inhibition zone,isolate AB30,9 mm
same,susceptibility category,isolate AB31,R (Resistant ≤15)
same,Inhibition zone,isolate AB31,NZ
same,susceptibility category,isolate AB32,R (Resistant ≤15)
same,Inhibition zone,isolate AB32,8 mm
same,susceptibility category,isolate AB33,R (Resistant ≤15)
same,Inhibition zone,isolate AB33,9 mm
